What was measured:
healthy poly-drug users [1] = assay: Subjective effects, ARCI 49-item short form; assay type: in vivo, humans; design: key to ARCI PCAG Dunnet’s Test: “a” (times 0–1 h); “b” (times 0–2 h); “c” (times 0–4 h); not significant (NS); conditions: for ARCI A (increased energy) AUC0–4h / ARCI A (increased energy) Emax / ARCI BG (intellectual efficiency) AUC0–4h / ARCI BG (intellectual efficiency) Emax / ARCI MBG (euphoria) AUC0–4h / ARCI MBG (euphoria) Emax / ARCI PCAG (sedation) AUC0–4h / ARCI PCAG (sedation) Emax / ARCI A (increased energy) Tmax: oral, methylone 100–300 mg n=8, MDMA 75–100 mg n=6; for ARCI A (increased energy) AUC0–4h / ARCI A (increased energy) Emax / ARCI BG (intellectual efficiency) AUC0–4h / ARCI BG (intellectual efficiency) Emax / ARCI MBG (euphoria) AUC0–4h / ARCI MBG (euphoria) Emax / ARCI PCAG (sedation) AUC0–4h / ARCI PCAG (sedation) Emax: baseline-adjusted, mean ± SD; for ARCI A (increased energy) Tmax: median (min–max); for ARCI A Dunnet’s Test / ARCI BG Dunnet’s Test / ARCI MBG Dunnet’s Test / ARCI PCAG Dunnet’s Test: time points significantly different from baseline
Excerpt: (§1) The study was designed as a non-controlled prospective observational study in a naturalistic setting with methylone and MDMA self-administration. The methodology, including procedures and evaluations, coincides with previous observational–naturalistic studies aimed at evaluating the acute effects of other NPS [38, 39, 40]. Six subjects (5 M, 1 F) self-administered MDMA and 8 subjects (5 M, 3 F) self-administered methylone. Each subject participated only in one session. Participants brought their own substance obtained from an unknown source, which was tested by Energy Control, a harm reduction organization that provides a drug checking service to drug users. Pills containing methylone and MDMA were analyzed by gas chromatography associated with mass spectrometry (GC/MS), a technique that traces the presence of the most frequent drugs of abuse, such as MDMA, cocaine, heroin, amphetamine and methamphetamine, LSD, and multiple NPS (methylone, mephedrone, and other synthetic cathinones, synthetic cannabinoids, tryptamines, among others).
(§2) In both sessions, participants selected the dose of methylone or MDMA according to their previous drug use experience. Doses of methylone could be selected from a range (75–300 mg) that was previously defined according to the consulted literature. The WHO Expert Committee on Drug Dependence (Thirty-Sixth Meeting, Geneva, Switzerland, 16–20 June 2014) established that 60 mg of methylone was the threshold dose and doses over 250 mg were often related to very strong activity. Some users have reported uses of 300 mg of methylone as a common dose [www.erowid.org] (accessed on 15 June 2021). The mean of the selected doses of MDMA was 87.50 mg (3 subjects ingested 75 mg (2 males and 1 female), 3 males 100 mg). In the other study session, methylone doses ranged from 100 to 300 mg, with a mean of 187.50 mg. Based on their dose selection, 1 male ingested 100 mg, 2 subjects 150 mg (1 male and 1 female), 4 subjects 200 mg (2 males and 2 females), and 1 male 300 mg.
(§3) The sessions were conducted in a naturalistic setting. Participants were allowed to talk, read, listen to music, or play games, except during the evaluation times. However, they were asked to refrain from talking about the effects of the substance. All the subjects were evaluated simultaneously at baseline, 1, 2, and 4 h after administration of methylone or MDMA, which occurred approximately at 16:00 h. At each time point, evaluations were followed in a specific order: physiological effects, oral fluid collection, and subjective effects scales and questionnaires.
(§4) Subjective effects were evaluated at baseline, 1, 2, and 4 h after self-administration using visual analogue scales (VAS), the Addiction Research Center Inventory (ARCI), and the Evaluation of Subjective Effects of Substances with Abuse Potential questionnaire (VESSPA-SSE).
The standardized ARCI 49-item short form is a true/false questionnaire used to evaluate the subjective effects of drugs of abuse. This inventory includes five subscales that assess pentobarbital–chlorpromazine–alcohol-like effects (PCAG, sedation), morphine–benzedrine-like effects (MBG, euphoria), lysergic acid diethylamide-like effects (LSD, dysphoria), benzedrine-like effects (BG, intellectual efficiency), and amphetamine-like effects (A, increased energy).
(§5) Vital signs (SBP, DBP, and HR) and subjective effects (VAS, ARCI, and VESSPA-SSE) were baseline-adjusted. Maximum effects and the time in which maximum effects appeared were determined, and the area under the curve (AUC0–4h) was calculated with the trapezoidal rule.
(§6) Thirdly, to find possible significant changes from baseline, a Dunnett multiple comparison test was conducted to compare each time point with baseline in both drug conditions (0–1 h, 0–2 h, 0–4 h).

healthy poly-drug users [2] = assay: Subjective effects, VESSPA-SSE questionnaire; assay type: in vivo, humans; design: key to VESSPA PS Dunnet’s Test: “a” (times 0–1 h); “b” (times 0–2 h); “c” (times 0–4 h); not significant (NS); conditions: for VESSPA ACT (activity and energy) AUC0–4h / VESSPA ACT (activity and energy) Emax / VESSPA ANX (psychosomatic anxiety) AUC0–4h / VESSPA ANX (psychosomatic anxiety) Emax / VESSPA PS (psychotic symptoms) AUC0–4h / VESSPA PS (psychotic symptoms) Emax / VESSPA S (sedation) AUC0–4h / VESSPA S (sedation) Emax / VESSPA SOC (pleasure and sociability) AUC0–4h / VESSPA SOC (pleasure and sociability) Emax: oral, methylone 100–300 mg n=8, MDMA 75–100 mg n=6, baseline-adjusted, mean ± SD; for VESSPA ACT Dunnet’s Test / VESSPA ANX Dunnet’s Test / VESSPA PS Dunnet’s Test / VESSPA S Dunnet’s Test / VESSPA SOC Dunnet’s Test: time points significantly different from baseline
Excerpt: as §1, §2, §3, §4
The VESSPA-SSE is a questionnaire sensitive to subjective effects related to stimulants such as MDMA that includes six subscales: sedation (S), psychosomatic anxiety (ANX), changes in perception (CP), pleasure and sociability (SOC), activity and energy (ACT), and psychotic symptoms (PS).
as §5, §6

Compound | ARCI A (increased energy) AUC0–4h (healthy poly-drug users [1]) | ARCI A (increased energy) Emax (healthy poly-drug users [1]) [score] | ARCI BG (intellectual efficiency) AUC0–4h (healthy poly-drug users [1]) | ARCI BG (intellectual efficiency) Emax (healthy poly-drug users [1]) [score] | ARCI MBG (euphoria) AUC0–4h (healthy poly-drug users [1]) | ARCI MBG (euphoria) Emax (healthy poly-drug users [1]) [score] | ARCI PCAG (sedation) AUC0–4h (healthy poly-drug users [1]) | ARCI PCAG (sedation) Emax (healthy poly-drug users [1]) [score] | ARCI A (increased energy) Tmax (healthy poly-drug users [1]) | ARCI A Dunnet’s Test (healthy poly-drug users [1]) | ARCI BG Dunnet’s Test (healthy poly-drug users [1]) | ARCI MBG Dunnet’s Test (healthy poly-drug users [1]) | ARCI PCAG Dunnet’s Test (healthy poly-drug users [1]) | VESSPA ACT (activity and energy) AUC0–4h (healthy poly-drug users [2]) | VESSPA ACT (activity and energy) Emax (healthy poly-drug users [2]) [score] | VESSPA ANX (psychosomatic anxiety) AUC0–4h (healthy poly-drug users [2]) | VESSPA ANX (psychosomatic anxiety) Emax (healthy poly-drug users [2]) [score] | VESSPA PS (psychotic symptoms) AUC0–4h (healthy poly-drug users [2]) | VESSPA PS (psychotic symptoms) Emax (healthy poly-drug users [2]) [score] | VESSPA S (sedation) AUC0–4h (healthy poly-drug users [2]) | also measured
CNC(C)C(=O)c1ccc2c(c1)OCO2 (centres unmarked) [Methylone, 3,4-methylenedioxymethcathinone] | 12.56 ± 7.77 | 5.38 ± 3.29 | 10.06 ± 7.83 | 4.63 ± 3.34 | 16.63 ± 13.21 | 7.5 ± 5.13 | −2.75 ± 3.73 | −1.25 ± 1.58 | 1.5 (1.0–4.0) h | a, b | a, b | a, b | a | 24.44 ± 17.87 | 9.75 ± 6.25 | 17.94 ± 11.17 | 7.50 ± 4.69 | 5.63 ± 5.58 | 2.63 ± 2.20 | 7.06 ± 6.45 | VESSPA S (sedation) Emax (healthy poly-drug users [2]): 3.38 ± 2.50 score; VESSPA SOC (pleasure and sociability) AUC0–4h (healthy poly-drug users [2]): 31.31 ± 25.40; VESSPA SOC (pleasure and sociability) Emax (healthy poly-drug users [2]): 12.25 ± 8.31 score; VESSPA ACT Dunnet’s Test (healthy poly-drug users [2]): a, b; VESSPA ANX Dunnet’s Test (healthy poly-drug users [2]): b, c; VESSPA PS Dunnet’s Test (healthy poly-drug users [2]): b; VESSPA S Dunnet’s Test (healthy poly-drug users [2]): b, c; VESSPA SOC Dunnet’s Test (healthy poly-drug users [2]): a, b
CNC(C)Cc1ccc2c(c1)OCO2 (centres unmarked) [MDMA, 3,4-methylenedioxymethamphetamine] | 15.75 ± 2.79 | 5.83 ± 1.17 | 9.83 ± 6.38 | 4.67 ± 2.25 | 20.83 ±10.05 | 8.0 ± 3.35 | −1.58 ± 8.39 | −0.83 ± 3.54 | 1.0 (1.0–2.0) h | a, b, c | a, b | a, b | NS | 32.58 ± 15.71 | 13.33 ± 4.84 | 16.50 ± 8.82 | 6.67 ± 4.37 | 2.25 ± 2.36 | 1.33 ± 1.21 | 5.92 ± 6.09 | VESSPA S (sedation) Emax (healthy poly-drug users [2]): 2.83 ± 2.23 score; VESSPA SOC (pleasure and sociability) AUC0–4h (healthy poly-drug users [2]): 38.67 ± 17.84; VESSPA SOC (pleasure and sociability) Emax (healthy poly-drug users [2]): 14.50 ± 5.96 score; VESSPA ACT Dunnet’s Test (healthy poly-drug users [2]): a, b; VESSPA ANX Dunnet’s Test (healthy poly-drug users [2]): a, b; VESSPA PS Dunnet’s Test (healthy poly-drug users [2]): NS; VESSPA S Dunnet’s Test (healthy poly-drug users [2]): a, c; VESSPA SOC Dunnet’s Test (healthy poly-drug users [2]): a, b

Source: publication PMC8389614, “A Comparison of Acute Pharmacological Effects of Methylone and MDMA Administration in Humans and Oral Fluid Concentrations as Biomarkers of Exposure” (Biology, 2021)
